Some targets named below: Aurora kinase B (Homo sapiens, UniProt Q96GD4); TGF-beta receptor type-2 (Homo sapiens, UniProt P37173); Midasin (Homo sapiens, UniProt Q9NU22).
Assay [1] concerns the target T1, Peroxisomal acyl-coenzyme A oxidase 1 (Homo sapiens, UniProt Q15067).
T1 sequence (Q15067 whole entry): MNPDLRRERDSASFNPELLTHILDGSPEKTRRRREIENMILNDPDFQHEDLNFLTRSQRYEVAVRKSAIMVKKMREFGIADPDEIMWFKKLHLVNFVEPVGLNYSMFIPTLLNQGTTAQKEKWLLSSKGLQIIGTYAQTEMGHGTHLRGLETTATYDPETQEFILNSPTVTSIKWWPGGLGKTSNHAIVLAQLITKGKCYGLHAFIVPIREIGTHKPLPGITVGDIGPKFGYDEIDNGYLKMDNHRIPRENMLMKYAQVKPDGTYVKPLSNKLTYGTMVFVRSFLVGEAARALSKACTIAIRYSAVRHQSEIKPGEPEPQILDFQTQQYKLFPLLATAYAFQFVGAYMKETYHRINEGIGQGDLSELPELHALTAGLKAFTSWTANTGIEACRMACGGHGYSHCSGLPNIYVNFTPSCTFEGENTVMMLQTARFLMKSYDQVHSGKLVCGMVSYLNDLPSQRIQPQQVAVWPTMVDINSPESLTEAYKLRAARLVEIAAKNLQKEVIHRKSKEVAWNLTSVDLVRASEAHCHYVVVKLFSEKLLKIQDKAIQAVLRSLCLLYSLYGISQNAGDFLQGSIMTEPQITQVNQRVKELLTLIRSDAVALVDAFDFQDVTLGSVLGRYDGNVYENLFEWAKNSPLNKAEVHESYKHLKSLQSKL

Assay [2] concerns the target Ribosomal protein S6 kinase alpha-1 (Homo sapiens, UniProt Q15418).
The target in assay [3] is cAMP-dependent protein kinase catalytic subunit gamma (Homo sapiens, UniProt P22612).
Chain of cAMP-dependent protein kinase catalytic subunit gamma (P22612 whole entry): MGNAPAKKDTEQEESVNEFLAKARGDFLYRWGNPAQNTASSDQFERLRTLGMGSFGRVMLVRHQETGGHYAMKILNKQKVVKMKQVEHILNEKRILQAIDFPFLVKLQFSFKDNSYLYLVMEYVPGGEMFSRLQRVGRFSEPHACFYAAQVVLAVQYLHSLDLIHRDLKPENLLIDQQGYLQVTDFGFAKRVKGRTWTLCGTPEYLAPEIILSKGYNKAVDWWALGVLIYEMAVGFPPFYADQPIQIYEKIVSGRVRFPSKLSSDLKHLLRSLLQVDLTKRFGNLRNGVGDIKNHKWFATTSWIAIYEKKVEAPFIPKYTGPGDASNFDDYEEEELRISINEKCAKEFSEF
Assay [4] deals with cAMP-dependent protein kinase catalytic subunit beta (Homo sapiens, UniProt P22694).
For assay [5], the target named is MAP/microtubule affinity-regulating kinase 3 (Homo sapiens, UniProt P27448).
Chain of MAP/microtubule affinity-regulating kinase 3 (P27448 whole entry): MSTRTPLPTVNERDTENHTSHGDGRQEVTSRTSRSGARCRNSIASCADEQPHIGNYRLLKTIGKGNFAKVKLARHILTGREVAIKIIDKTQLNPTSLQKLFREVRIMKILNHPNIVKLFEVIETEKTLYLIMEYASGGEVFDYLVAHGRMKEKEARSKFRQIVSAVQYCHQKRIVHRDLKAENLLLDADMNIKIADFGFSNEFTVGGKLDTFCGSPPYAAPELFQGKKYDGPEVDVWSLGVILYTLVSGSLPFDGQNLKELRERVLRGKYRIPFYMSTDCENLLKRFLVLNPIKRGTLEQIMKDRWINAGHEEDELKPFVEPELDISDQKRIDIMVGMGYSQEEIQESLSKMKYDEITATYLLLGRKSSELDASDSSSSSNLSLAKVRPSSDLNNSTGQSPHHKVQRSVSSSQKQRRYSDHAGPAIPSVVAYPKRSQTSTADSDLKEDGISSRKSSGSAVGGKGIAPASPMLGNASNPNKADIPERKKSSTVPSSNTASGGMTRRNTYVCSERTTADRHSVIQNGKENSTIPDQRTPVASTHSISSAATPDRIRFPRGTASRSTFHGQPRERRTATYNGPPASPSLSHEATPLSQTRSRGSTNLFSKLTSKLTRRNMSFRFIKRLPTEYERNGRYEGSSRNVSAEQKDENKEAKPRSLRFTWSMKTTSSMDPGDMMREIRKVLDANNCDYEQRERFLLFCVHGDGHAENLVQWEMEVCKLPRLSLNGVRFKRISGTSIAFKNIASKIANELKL
In a further assay the target is T2, Activin receptor type-1 (Homo sapiens, UniProt Q04771).
T2 sequence (Q04771 whole entry): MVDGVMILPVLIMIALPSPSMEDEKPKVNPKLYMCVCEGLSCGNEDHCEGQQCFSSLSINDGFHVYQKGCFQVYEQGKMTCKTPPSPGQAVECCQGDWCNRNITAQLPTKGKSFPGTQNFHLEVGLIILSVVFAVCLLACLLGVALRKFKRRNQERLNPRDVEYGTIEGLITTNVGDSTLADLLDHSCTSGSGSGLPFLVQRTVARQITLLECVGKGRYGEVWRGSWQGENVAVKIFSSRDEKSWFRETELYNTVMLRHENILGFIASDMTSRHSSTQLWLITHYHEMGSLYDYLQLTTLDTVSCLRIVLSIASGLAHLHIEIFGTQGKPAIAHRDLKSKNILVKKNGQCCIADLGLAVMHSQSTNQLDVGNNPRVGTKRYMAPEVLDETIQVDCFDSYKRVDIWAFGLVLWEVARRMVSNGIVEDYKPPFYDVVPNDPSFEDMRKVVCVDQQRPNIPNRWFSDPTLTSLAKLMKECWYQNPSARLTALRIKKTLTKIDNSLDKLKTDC

Assay [6] deals with Glycogen synthase kinase-3 beta (Homo sapiens, UniProt P49841).
Chain of Glycogen synthase kinase-3 beta (P49841 whole entry): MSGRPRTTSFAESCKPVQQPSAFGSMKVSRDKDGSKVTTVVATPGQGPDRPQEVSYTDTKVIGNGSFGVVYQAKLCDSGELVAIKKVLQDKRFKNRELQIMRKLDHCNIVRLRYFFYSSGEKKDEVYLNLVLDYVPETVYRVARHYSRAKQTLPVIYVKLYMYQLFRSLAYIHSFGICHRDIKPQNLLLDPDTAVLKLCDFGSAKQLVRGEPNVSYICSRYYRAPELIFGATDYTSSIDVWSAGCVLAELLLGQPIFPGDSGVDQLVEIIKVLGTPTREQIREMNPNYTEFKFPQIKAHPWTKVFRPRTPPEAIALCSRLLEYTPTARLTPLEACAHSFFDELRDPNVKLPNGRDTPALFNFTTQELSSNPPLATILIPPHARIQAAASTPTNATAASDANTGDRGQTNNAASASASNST
In assay [7] the target is Tyrosine-protein kinase HCK (Homo sapiens, UniProt P08631).
Chain of Tyrosine-protein kinase HCK (P08631 whole entry): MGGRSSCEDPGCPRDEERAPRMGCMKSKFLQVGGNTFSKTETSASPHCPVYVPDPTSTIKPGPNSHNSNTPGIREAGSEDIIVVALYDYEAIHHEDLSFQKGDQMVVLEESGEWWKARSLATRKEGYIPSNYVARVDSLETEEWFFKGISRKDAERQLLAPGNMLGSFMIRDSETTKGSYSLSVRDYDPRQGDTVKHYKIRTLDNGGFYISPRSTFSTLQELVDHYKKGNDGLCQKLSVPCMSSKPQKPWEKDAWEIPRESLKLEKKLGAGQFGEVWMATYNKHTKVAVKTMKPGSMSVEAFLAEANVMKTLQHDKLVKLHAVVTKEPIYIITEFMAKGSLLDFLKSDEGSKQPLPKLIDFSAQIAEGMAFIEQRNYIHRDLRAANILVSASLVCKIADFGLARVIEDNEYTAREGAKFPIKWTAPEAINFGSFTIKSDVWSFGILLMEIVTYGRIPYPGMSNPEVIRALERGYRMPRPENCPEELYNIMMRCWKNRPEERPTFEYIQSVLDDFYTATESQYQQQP
Assay [8] addresses Mitogen-activated protein kinase 3 (Homo sapiens, UniProt P27361).
The target of the next assay is T3, Activin receptor type-1B (Homo sapiens, UniProt P36896).
T3 sequence (P36896 whole entry): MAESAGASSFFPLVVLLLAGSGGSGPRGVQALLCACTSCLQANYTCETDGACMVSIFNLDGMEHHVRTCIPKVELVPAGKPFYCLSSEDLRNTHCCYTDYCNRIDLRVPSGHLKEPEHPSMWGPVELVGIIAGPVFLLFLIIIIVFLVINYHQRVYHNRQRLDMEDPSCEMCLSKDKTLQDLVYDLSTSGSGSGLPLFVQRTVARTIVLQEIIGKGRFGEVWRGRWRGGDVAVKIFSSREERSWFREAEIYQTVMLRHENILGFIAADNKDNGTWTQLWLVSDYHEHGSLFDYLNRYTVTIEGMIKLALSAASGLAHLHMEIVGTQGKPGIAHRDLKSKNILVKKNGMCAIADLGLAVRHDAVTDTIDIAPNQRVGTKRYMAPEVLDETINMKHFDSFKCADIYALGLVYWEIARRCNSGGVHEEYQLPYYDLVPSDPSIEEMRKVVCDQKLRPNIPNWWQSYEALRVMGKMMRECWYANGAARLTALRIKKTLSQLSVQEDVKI

The target in assay [9] is MAP kinase-activated protein kinase 2 (Homo sapiens, UniProt P49137).
Chain of MAP kinase-activated protein kinase 2 (P49137 whole entry): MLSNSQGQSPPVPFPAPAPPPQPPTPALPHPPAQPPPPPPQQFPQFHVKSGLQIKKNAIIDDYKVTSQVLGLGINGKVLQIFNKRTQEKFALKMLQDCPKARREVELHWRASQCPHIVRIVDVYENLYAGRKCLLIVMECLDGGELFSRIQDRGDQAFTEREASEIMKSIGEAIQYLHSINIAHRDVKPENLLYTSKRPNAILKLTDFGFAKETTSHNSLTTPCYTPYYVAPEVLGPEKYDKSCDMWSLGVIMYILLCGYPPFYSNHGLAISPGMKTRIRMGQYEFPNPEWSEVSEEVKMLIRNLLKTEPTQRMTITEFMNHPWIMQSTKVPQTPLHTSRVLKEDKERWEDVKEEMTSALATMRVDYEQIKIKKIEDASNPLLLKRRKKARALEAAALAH

Calls of active or inactive are those of the source. Rule as the data show it, for most assays here: actives have a measured Kd and inactives only a lower limit.
Also: in the data inactive means no Kd found up to 30 µM.

Chain of Aurora kinase B (Q96GD4 whole entry): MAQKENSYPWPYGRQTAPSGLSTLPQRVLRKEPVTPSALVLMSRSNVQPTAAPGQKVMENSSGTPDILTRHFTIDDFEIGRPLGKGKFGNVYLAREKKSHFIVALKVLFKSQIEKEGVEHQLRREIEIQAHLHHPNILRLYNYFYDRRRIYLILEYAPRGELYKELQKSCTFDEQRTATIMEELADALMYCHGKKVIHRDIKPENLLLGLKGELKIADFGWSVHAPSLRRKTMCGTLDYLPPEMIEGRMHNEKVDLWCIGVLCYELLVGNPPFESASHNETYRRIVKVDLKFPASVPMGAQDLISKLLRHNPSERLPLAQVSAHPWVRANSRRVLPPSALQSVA
Chain of Mitogen-activated protein kinase 3 (P27361 whole entry): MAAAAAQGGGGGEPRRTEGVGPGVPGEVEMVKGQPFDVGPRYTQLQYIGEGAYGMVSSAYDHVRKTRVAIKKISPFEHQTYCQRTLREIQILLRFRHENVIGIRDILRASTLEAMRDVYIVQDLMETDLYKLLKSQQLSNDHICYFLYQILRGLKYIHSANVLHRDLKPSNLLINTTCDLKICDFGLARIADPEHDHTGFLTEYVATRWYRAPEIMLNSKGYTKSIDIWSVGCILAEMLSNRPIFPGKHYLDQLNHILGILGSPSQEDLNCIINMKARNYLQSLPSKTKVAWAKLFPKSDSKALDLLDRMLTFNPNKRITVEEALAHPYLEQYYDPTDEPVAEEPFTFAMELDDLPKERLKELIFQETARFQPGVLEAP
Chain of TGF-beta receptor type-2 (P37173 whole entry): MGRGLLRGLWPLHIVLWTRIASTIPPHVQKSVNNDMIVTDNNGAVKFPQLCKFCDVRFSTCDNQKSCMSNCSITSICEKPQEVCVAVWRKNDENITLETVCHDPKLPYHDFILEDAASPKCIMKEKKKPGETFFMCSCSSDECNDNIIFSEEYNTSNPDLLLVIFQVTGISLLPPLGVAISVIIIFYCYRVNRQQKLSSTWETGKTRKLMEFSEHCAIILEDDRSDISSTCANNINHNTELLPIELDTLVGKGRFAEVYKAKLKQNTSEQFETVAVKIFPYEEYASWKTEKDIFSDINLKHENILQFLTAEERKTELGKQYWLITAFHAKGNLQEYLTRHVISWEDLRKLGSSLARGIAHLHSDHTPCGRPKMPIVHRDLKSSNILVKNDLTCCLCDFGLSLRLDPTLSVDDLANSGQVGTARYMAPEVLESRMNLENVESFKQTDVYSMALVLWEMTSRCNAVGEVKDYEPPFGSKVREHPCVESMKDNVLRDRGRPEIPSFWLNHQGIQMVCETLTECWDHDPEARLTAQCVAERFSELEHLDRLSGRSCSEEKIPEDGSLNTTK
Chain of Ribosomal protein S6 kinase alpha-1 (Q15418 whole entry): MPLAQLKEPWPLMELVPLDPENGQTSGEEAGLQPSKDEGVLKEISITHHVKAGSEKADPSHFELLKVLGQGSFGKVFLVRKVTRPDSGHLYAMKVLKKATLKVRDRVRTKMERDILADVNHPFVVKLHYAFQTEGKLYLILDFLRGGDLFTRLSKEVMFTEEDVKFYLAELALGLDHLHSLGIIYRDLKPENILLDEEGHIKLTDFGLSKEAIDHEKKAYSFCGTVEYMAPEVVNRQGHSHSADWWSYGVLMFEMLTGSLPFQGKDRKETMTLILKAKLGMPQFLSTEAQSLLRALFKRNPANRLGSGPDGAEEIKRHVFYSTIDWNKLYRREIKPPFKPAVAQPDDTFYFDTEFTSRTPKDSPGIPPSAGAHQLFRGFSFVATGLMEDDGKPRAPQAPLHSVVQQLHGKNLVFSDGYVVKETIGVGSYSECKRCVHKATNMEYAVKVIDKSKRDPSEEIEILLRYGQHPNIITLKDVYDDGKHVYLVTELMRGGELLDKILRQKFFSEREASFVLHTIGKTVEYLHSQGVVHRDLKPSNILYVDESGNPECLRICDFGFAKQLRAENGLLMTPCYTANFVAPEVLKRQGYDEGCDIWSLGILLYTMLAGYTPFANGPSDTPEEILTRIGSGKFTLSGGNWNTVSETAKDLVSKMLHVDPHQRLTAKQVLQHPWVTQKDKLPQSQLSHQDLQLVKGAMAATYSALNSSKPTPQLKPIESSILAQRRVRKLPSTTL

With `C[C@@H](c1ccc2nccn2c1)n1nnc2ncc(-c3cnn(C)c3)nc21` [SAVOLITINIB], the Kd (in [1]; on Aurora kinase B; in assay [2]; in assay [3]; in assay [4]; in assay [5]) was > 30 µM (inactive) in each case. The Kd (on TGF-beta receptor type-2; at Activin receptor type-1; in assay [6]; on Midasin; in assay [7]; in assay [8]) was > 30 µM (inactive) in each case.

For the compound `CNS(=O)(=O)Nc1nccc(Cc2c(C)c3ccc(Oc4ncccn4)cc3oc2=O)c1F` [AVUTOMETINIB], the Kd (in assay [1]; at Aurora kinase B; in assay [2]; at Activin receptor type-1B; in assay [4]; in [5]) was > 30 µM (inactive) in each case. Moreover, the Kd (at TGF-beta receptor type-2; at Activin receptor type-1; in assay [6]; in assay [9]; on Midasin; in assay [7]) was > 30 µM (inactive) each time. The Kd in [8] was > 30 µM (inactive).

For `Cn1ncc(Cl)c1-c1cc(C(=O)N[C@H](CN)Cc2cccc(F)c2)sc1Cl` [AFURESERTIB], the Kd in assay [1] is > 30 µM (inactive); at Aurora kinase B, > 30 µM (inactive); in [2], > 30 µM (inactive); at Activin receptor type-1B, > 30 µM (inactive); in assay [4], 0.211 µM (active); in assay [5], > 30 µM (inactive). Further, the Kd (at TGF-beta receptor type-2; on Activin receptor type-1; in assay [6]; in assay [9]; at Midasin; in assay [7]) was > 30 µM (inactive) in each case. Moreover, the Kd in [8] was > 30 µM (inactive).

As for `CCCS(=O)(=O)Nc1ccc(F)c(C(=O)c2c[nH]c3ncc(-c4ccc(Cl)cc4)cc23)c1F` [VEMURAFENIB], the Kd (in assay [1]; on Aurora kinase B; in assay [2]; at Activin receptor type-1B; in assay [4]; in [5]) was > 30 µM (inactive) each time. Besides, the Kd is 3.4 µM (active) on TGF-beta receptor type-2; > 30 µM (inactive) on Activin receptor type-1; > 30 µM (inactive) in assay [6]; > 30 µM (inactive) in assay [9]; > 30 µM (inactive) at Midasin; > 30 µM (inactive) in [7]. Moreover, the Kd in assay [8] is > 30 µM (inactive).

Turning to `COc1cc(CCc2cc(NC(=O)c3ccc(N4C[C@@H](C)N[C@@H](C)C4)cc3)n[nH]2)cc(OC)c1` [AZD-4547], the Kd was > 30 µM (inactive) in assay [1]; 1.67 µM at Aurora kinase B; > 30 µM (inactive) in [2]; > 30 µM (inactive) on Activin receptor type-1B; > 30 µM (inactive) in assay [4]; 9.02 µM (active) in assay [5]. The Kd (at TGF-beta receptor type-2; on Activin receptor type-1; in assay [6]; in [9]; at Midasin; in assay [7]) was > 30 µM (inactive) each time. Further, the Kd in assay [8] was > 30 µM (inactive).

Consider `CNC(=O)c1ccc(-c2cnc3ncc(Cc4ccc5ncccc5c4)n3n2)cc1F` [CAPMATINIB], for which the Kd (in assay [1]; at Aurora kinase B; in assay [2]; in assay [3]; at Activin receptor type-1B; in assay [4]) was > 30 µM (inactive) throughout. The Kd (in assay [5]; on TGF-beta receptor type-2; on Activin receptor type-1; in assay [9]; on Midasin; in assay [7]) was > 30 µM (inactive) each time. The Kd in [8] is > 30 µM (inactive).

As to `N[C@@H]1CCCN(c2c(/C=C3\SC(=O)NC3=O)cccc2-c2ccccc2)C1`, the Kd (in assay [1]; on Aurora kinase B; in assay [2]; in assay [3]; on Activin receptor type-1B; in assay [4]) was > 30 µM (inactive) each time. Besides, the Kd (in assay [5]; on Activin receptor type-1; in assay [6]; in assay [9]; at Midasin; in assay [7]) was > 30 µM (inactive) each time. Also, the Kd in [8] is > 30 µM (inactive).

As to `Cn1cc(-c2ccc(F)c(C(F)(F)F)c2)nc1C1CCN(c2ncnc3[nH]ncc23)CC1` [LY-2584702], the Kd (in assay [1]; at Aurora kinase B; in [2]; in assay [3]; at Activin receptor type-1B; in [4]) was > 30 µM (inactive) in each case. In addition, the Kd (in assay [5]; on TGF-beta receptor type-2; at Activin receptor type-1; in assay [9]; on Midasin; in assay [7]) was > 30 µM (inactive) in each case. Also, in assay [8], the Kd is > 30 µM (inactive).

As for `CC[C@@H]1C(=O)N(C)c2cnc(Nc3ccc(C(=O)N[C@H]4CC[C@H](N5CCN(CC6CC6)CC5)CC4)cc3OC)nc2N1C(C)C` [VOLASERTIB], the Kd (in assay [1]; on Aurora kinase B; in assay [2]; at Activin receptor type-1B; in assay [4]; in assay [5]) was > 30 µM (inactive) each time. Also, the Kd (at TGF-beta receptor type-2; at Activin receptor type-1; in assay [6]; in [9]; on Midasin; in [7]) was > 30 µM (inactive) in each case. For the same compound, the Kd in assay [8] is > 30 µM (inactive).

On to `O=c1sn(-c2cccc3ccccc23)c(=O)n1Cc1ccccc1` [TIDEGLUSIB], for which the Kd (in assay [1]; at Aurora kinase B; in assay [2]; in assay [3]; on Activin receptor type-1B; in assay [4]) was > 30 µM (inactive) in each case. Besides, the Kd (in [5]; on TGF-beta receptor type-2; on Activin receptor type-1; in assay [9]; on Midasin; in [7]) was > 30 µM (inactive) each time. Moreover, the Kd in assay [8] was > 30 µM (inactive).

A word on the Kd: it is the constant that tells how readily two partners part at equilibrium.

The values are drawn from ChEMBL document CHEMBL3991601, “The target landscape of clinical kinase drugs” (Science, 2017).
